From ChEMBL document CHEMBL5247655, “Simplified Derivatives of Tetrandrine as Potent and Specific P-gp Inhibitors to Reverse Multidrug Resistance in Cancer Chemotherapy” (J Med Chem, 2023)
In brackets after ≈: the same amount, converted by molar mass. Activity calls are given as the source filed them. No cut-off for these calls is given here.

Experiments:
ECa-109 cell line [1] = experiment: Induction of apoptosis in vincristine resistant human Eca-109 cells assessed as viable cells at 1 uM incubated for 24 hrs in presence of vincristine by AnnexinV-FITC/PI staining based flow cytometric analysis (reference value: 89.2%); assay type: functional; settings: read-out: Activity
[2] = target: T1, ATP-dependent translocase ABCB1 (Homo sapiens, UniProt P08183); experiment: Inhibition of P-gp efflux in vincristine resistant human Eca-109 cells assessed as effect on accumulation of calcein-AM; assay type: cell-based
[3] = Apparent oral clearance in Sprague-Dawley rat at 3 mg/kg, iv measured upto 24 hrs by UPLC/MS/MS analysis; assay type: ADME, organism-based; settings: in vivo
ECa-109 cell line [4] = experiment: Synergistic antitumor activity against in vincristine resistant p-gp overexpressing human Eca-109 cells xenografted in nude mouse assessed as reduction in tumor weight at 30 mg/kg, IG administered every two days for 21 days in presence of vincristine by caliper method; assay type: functional, organism-based; settings: time 21.0 day
[5] = AUC (0 to infinity) in Sprague-Dawley rat at 30 mg/kg, po measured upto 24 hrs by UPLC/MS/MS analysis; assay type: ADME, organism-based; parameters: time < 24 hrs, dose 30 mg/kg, route po; settings: in vivo
ECa-109 cell line [6] = experiment: Induction of apoptosis in vincristine resistant human Eca-109 cells assessed as late apoptotic cells at 5 uM incubated for 24 hrs in presence of vincristine by AnnexinV-FITC/PI staining based flow cytometric analysis (reference value: 6.01%); assay type: functional
ECa-109 cell line [7] = experiment: Synergistic antitumor activity against in vincristine resistant p-gp overexpressing human Eca-109 cells xenografted in nude mouse assessed as increase in nuclear pyknosis at 30 mg/kg, IG administered every two days for 21 days in presence of vincristine by TUNEL analysis; assay type: functional, organism-based; settings: time 21.0 day
ECa-109 cell line [8] = experiment: Cytotoxicity against vincristine resistant human Eca-109 cells incubated for 48 hrs by CCK-8 method; assay type: functional, cell-based; settings: ECa-109, 48 h
ECa-109 cell line [9] = experiment: Cytotoxicity against vincristine resistant human Eca-109 cells incubated for 48 hrs by CCK-8 method relative to control; assay type: functional; parameters: concentration or dose not given beside the values
ECa-109 cell line [10] = experiment: Induction of apoptosis in vincristine resistant human Eca-109 cells assessed as late apoptotic cells at 1 uM incubated for 24 hrs by AnnexinV-FITC/PI staining based flow cytometric analysis (reference value: 7.19%); assay type: functional
[11] = Toxicity in nude mouse assessed as change in body weight at 30 mg/kg administered every 2 days for 21 days; assay type: organism-based; settings: in vivo, 48 h, time 2 day
ECa-109 cell line [12] = experiment: Synergistic antitumor activity against in vincristine resistant p-gp overexpressing human Eca-109 cells xenografted in nude mouse assessed as increase in vacuoles at 30 mg/kg, IG administered every two days for 21 days in presence of vincristine by TUNEL analysis; assay type: functional, organism-based; settings: time 21.0 day
ECa-109 cell line [13] = experiment: Induction of apoptosis in vincristine resistant human Eca-109 cells assessed as late apoptotic cells at 2.5 uM incubated for 24 hrs in presence of vincristine by AnnexinV-FITC/PI staining based flow cytometric analysis (reference value: 6.01%); assay type: functional
[14] = AUMC (0 to infinity) in Sprague-Dawley rat at 3 mg/kg, iv measured upto 24 hrs by UPLC/MS/MS analysis; assay type: ADME, organism-based; settings: in vivo
[15] = target: Multidrug resistance-associated protein 1 (Homo sapiens, UniProt P33527); experiment: Binding affinity to MRP1 in vincristine resistant human Eca-109 cells assessed as stabilization of protein at 100 uM incubated for 30 mins by thermal shift assay; assay type: cell-based; settings: eca-109, 0.5 h
[16] = Toxicity in nude mouse assessed as change in body weight at 30 mg/kg administered every 2 days for 21 days in presence of vincristine; assay type: organism-based; settings: in vivo, 48 h, time 2 day
[17] = target: T1, ATP-dependent translocase ABCB1; experiment: Inhibition of P-gp efflux in vincristine resistant human Eca-109 cells assessed as effect on accumulation of doxorubicin; assay type: cell-based
ECa-109 cell line [18] = experiment: Induction of apoptosis in vincristine resistant human Eca-109 cells assessed as early apoptotic cells at 1 uM incubated for 24 hrs by AnnexinV-FITC/PI staining based flow cytometric analysis (reference value: 2.30%); assay type: functional
ECa-109 cell line [19] = experiment: Reversal of vincristine-resistance in human Eca-109 cells assessed as fold reversal by measuring cell viability at 5 uM incubated for 48 hrs by CCK-8 method relative to vincristine alone; assay type: functional
[20] = Solubility of the compound in water at 25 degree C by shake flask method based UV-spectrophotometric method; assay type: physicochemical
ECa-109 cell line [21] = experiment: Induction of apoptosis in vincristine resistant human Eca-109 cells assessed as early apoptotic cells at 1 uM incubated for 24 hrs in presence of vincristine by AnnexinV-FITC/PI staining based flow cytometric analysis (reference value: 4.43%); assay type: functional
ECa-109 cell line [22] = experiment: Reversal of VCR -resistance in human Eca-109 cells assessed as cell viability at 2.5 uM incubated for 48 hrs by CCK-8 method (reference value: 6830.0+/-537.0 nM); assay type: functional, cell-based; settings: ECa-109, 48 h
[23] = Cytotoxicity against human LX2 cells incubated for 48 hrs by CCK-8 method; assay type: toxicity, cell-based, LX-2
[24] = Inhibition of clone formation in vincristine resistant human Eca-109 cells at 2 uM incubated for 48 hrs by crystal violet staining based analysis; assay type: functional
[25] = AUC (0 to infinity) in Sprague-Dawley rat at 3 mg/kg, iv measured upto 24 hrs by UPLC/MS/MS analysis; assay type: ADME, organism-based; parameters: time < 24 hrs, dose 3 mg/kg, route iv; settings: in vivo
[26] = AUC (0 to t) in Sprague-Dawley rat at 30 mg/kg, po measured upto 24 hrs by UPLC/MS/MS analysis; assay type: ADME, organism-based; parameters: time < 24 hrs, dose 30 mg/kg, route po; settings: in vivo
[27] = Half life in Sprague-Dawley rat at 30 mg/kg, po measured upto 24 hrs by UPLC/MS/MS analysis; assay type: ADME, organism-based; settings: in vivo
ECa-109 cell line [28] = experiment: Induction of apoptosis in vincristine resistant human Eca-109 cells assessed as late apoptotic cells at 5 uM incubated for 24 hrs by AnnexinV-FITC/PI staining based flow cytometric analysis (reference value: 7.19%); assay type: functional
[29] = target: T1, ATP-dependent translocase ABCB1; experiment: Inhibition of P-gp efflux in vincristine resistant human Eca-109 cells assessed as increase in rhodamine 123 fluorescence intensity incubated for 3 hrs; assay type: cell-based; settings: eca-109, 3 h, dose 0-45 µM
ECa-109 cell line [30] = experiment: Induction of apoptosis in vincristine resistant human Eca-109 cells assessed as early apoptotic cells at 2.5 uM incubated for 24 hrs in presence of vincristine by AnnexinV-FITC/PI staining based flow cytometric analysis (reference value: 4.43%); assay type: functional
[31] = target: T1, ATP-dependent translocase ABCB1; experiment: Inhibition of P-gp efflux in vincristine resistant human Eca-109 cells assessed as effect on accumulation of H33342; assay type: cell-based
ECa-109 cell line [32] = experiment: Induction of apoptosis in vincristine resistant human Eca-109 cells assessed as necrotic cells at 5 uM incubated for 24 hrs by AnnexinV-FITC/PI staining based flow cytometric analysis (reference value: 0.25%); assay type: functional
[33] = target: T1, ATP-dependent translocase ABCB1; experiment: Inhibition of P-gp efflux in vincristine resistant human Eca-109 cells assessed as increase in rhodamine 123 fluorescence intensity at 30 uM; assay type: cell-based; settings: eca-109, 30 µM, TDE = time-dependent effect, time 0-5 hrs
[34] = target: T1, ATP-dependent translocase ABCB1; experiment: Inhibition of P-gp efflux in vincristine resistant human Eca-109 cells assessed as increase in intracellular accumulation of calcein-AM at 1 to 5 uM incubated for 1 hr by flow cytometry analysis; assay type: cell-based; settings: eca-109, 1 h, dose 1-5 µM
[35] = Apparent volume of distribution during terminal phase in Sprague-Dawley rat at 30 mg/kg, po measured upto 24 hrs by UPLC/MS/MS analysis; assay type: ADME, organism-based; settings: in vivo, read-out: Vz/F

T1 sequence (P08183 whole entry): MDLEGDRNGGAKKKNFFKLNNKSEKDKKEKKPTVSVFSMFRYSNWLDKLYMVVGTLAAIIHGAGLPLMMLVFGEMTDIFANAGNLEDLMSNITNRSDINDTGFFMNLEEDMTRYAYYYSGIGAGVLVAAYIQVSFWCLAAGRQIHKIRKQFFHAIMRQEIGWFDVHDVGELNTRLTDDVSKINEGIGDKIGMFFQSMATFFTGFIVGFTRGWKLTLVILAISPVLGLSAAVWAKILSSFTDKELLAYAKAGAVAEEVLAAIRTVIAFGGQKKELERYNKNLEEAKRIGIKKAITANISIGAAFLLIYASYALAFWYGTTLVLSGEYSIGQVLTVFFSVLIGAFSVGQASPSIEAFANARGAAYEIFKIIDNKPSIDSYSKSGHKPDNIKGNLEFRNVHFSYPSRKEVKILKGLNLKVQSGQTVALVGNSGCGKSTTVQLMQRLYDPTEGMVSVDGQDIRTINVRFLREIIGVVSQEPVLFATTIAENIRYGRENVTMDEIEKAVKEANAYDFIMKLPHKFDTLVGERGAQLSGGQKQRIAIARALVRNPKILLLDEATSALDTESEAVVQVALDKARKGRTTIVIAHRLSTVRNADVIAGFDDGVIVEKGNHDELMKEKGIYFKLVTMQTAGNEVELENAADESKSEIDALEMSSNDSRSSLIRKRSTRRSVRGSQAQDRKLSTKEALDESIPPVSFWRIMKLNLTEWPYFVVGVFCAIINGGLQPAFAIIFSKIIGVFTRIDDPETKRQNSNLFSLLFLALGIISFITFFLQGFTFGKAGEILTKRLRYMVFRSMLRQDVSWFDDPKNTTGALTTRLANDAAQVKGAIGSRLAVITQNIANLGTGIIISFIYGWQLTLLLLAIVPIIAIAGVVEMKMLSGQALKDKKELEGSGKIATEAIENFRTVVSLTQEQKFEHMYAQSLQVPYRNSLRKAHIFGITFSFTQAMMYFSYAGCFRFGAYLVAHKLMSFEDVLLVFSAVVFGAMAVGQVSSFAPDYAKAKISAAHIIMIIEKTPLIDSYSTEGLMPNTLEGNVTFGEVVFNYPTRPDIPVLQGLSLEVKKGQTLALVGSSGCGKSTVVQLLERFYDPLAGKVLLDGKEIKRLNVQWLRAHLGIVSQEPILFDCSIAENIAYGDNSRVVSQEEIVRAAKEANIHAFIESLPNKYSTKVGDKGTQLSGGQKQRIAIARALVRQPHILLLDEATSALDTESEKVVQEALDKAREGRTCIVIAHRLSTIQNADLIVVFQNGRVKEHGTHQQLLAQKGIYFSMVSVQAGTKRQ
Chain of Multidrug resistance-associated protein 1 (P33527 whole entry): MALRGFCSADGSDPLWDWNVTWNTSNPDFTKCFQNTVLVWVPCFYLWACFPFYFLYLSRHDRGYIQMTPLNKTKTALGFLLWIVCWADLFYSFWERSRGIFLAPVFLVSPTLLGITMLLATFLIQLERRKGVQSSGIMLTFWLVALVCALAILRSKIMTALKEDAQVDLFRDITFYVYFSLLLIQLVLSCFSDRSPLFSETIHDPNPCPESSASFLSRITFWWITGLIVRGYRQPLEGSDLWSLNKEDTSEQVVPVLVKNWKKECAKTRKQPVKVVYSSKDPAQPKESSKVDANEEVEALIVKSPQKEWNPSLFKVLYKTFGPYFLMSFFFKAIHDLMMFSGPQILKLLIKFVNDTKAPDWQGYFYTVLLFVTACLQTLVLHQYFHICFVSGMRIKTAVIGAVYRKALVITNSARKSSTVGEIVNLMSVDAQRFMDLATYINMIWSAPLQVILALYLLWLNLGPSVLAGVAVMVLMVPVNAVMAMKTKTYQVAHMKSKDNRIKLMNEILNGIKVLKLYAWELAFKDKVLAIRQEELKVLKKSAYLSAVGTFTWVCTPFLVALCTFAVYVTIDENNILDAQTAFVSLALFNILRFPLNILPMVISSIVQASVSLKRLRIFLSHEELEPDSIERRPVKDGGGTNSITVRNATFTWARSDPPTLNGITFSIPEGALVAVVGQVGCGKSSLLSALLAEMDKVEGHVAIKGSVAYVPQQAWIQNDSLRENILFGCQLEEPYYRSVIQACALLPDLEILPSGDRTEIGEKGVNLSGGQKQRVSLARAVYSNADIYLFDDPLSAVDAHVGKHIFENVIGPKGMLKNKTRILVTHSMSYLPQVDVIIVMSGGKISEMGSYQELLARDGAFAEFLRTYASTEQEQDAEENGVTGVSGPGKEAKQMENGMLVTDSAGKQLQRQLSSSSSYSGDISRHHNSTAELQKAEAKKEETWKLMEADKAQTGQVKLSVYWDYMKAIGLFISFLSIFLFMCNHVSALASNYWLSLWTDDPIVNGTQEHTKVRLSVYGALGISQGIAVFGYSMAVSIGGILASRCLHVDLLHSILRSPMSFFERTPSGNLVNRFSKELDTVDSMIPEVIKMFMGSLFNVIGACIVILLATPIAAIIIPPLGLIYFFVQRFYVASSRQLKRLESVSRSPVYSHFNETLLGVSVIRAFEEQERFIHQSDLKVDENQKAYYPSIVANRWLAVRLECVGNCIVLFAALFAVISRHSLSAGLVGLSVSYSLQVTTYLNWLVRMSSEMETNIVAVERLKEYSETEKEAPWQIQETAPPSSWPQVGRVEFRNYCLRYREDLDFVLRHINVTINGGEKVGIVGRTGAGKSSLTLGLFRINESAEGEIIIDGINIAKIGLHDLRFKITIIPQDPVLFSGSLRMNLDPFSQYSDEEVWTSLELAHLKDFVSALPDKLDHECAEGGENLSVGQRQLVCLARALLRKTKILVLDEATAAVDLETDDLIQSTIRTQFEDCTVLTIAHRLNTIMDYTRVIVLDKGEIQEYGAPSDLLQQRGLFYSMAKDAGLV

COc1cc2c(cc1OC)C(Cc1ccc(OC)c(OCc3ccccc3)c1)N(C)CC2 (stereo not given)
viability at 1 µM (ECa-109 cell line [1]): 76.1% | inhibition (INH) [2]: Active | CL/F [3]: 18.3 mL/min/kg | Activity (ECa-109 cell line [4]): Active | AUC(0-inf) [5]: 2740 ng·h/mL | Activity (ECa-109 cell line [6]): 9.81% | Activity (ECa-109 cell line [7]): Active | IC50 (ECa-109 cell line [8]): > 100 µM | Activity (ECa-109 cell line [9]): 95.3% | Activity (ECa-109 cell line [10]): 6.12% | Activity [11]: Non-Toxic | Activity (ECa-109 cell line [12]): Active | Activity (ECa-109 cell line [13]): 11.3% | AUMC [14]: 7391.35 ng/mL.hr^2 | Activity [15]: Not Active | Activity [16]: Non-Toxic | inhibition (INH) [17]: Active | Activity (ECa-109 cell line [18]): 2.07% | fold change (FC) (ECa-109 cell line [19]): 690.6 | solubility thermodynamic [20]: 68 µg/mL (≈ 157 µM) | Activity (ECa-109 cell line [21]): 14.9% | IC50 (ECa-109 cell line [22]): 66.1 nM | IC50 at 48 h [23]: > 50 µM | inhibition at 2 µM [24]: 100% | AUC(0-inf) [25]: 2740 ng·h/mL | AUC(0-t) at 24 h [26]: 2670 ng·h/mL | half-life [27]: 442 min | Activity (ECa-109 cell line [28]): 6.58% | inhibition (INH) [29]: Dose-Dependent Effect | Activity (ECa-109 cell line [30]): 17.8% | inhibition (INH) [31]: Active | Activity (ECa-109 cell line [32]): 0.14% | inhibition (INH) [33]: Tde | inhibition (INH) [34]: Active | Vd/F [35]: 111 L/kg
